Laboratory results as given in patent publication US20160318856A1, “Substituted Urea eIF2alpha Kinase Activators” (THE BRIGHAM AND WOMEN'S HOSPITAL, INC., priority 2013, published 2016).
Like-named read-outs stand apart in the source and are kept apart here.

How the values were obtained:
[1] = system: CRL-2813 human melanoma cancer cells; assay: cell proliferation (SRB) assay, CRL-2813; type: cell-based; conditions: read-out: IC50
Procedure: Cells were seeded in 96-well plates and maintained for 5 days in the presence of 0.5 to 20 μM of individual compound, and cell proliferation was measured by the sulforhodamine B (SRB) assay as described previously (see, for example, Palakurthi, S. S. et al. Cancer Research 2000, 60(11), 2919-2925). Briefly, at the end of a 5-day treatment, cells were fixed in 10% cold trichloroacetic acid. Cell number was estimated by measuring the remaining bound dye of sulforhodamine B after washing. The percentage of growth was calculated by using the equation: 100×[(T−T0)/(C−T0)], where T and C represent the absorbance in treated and control cultures at Day 5, and T0 at time zero, respectively. If T is less than T0, cell death has occurred and can be calculated from 100×[(T−T0)/T0].

[2] = system: eIF2α phosphorylation (eIF2•GTP•Met-tRNAi ternary complex; HRI activation); assay: surrogate dual luciferase eIF2α phosphorylation (ternary complex) assay; type: cell-based, human; conditions: for maximal fold induction: Homo sapiens, read-out: Emax (F/R)
From the text: The dual luciferase expression vector and other plasmids used for these studies were previously described (see, for example, Ziegeler, G. et al. Journal of Biological Chemistry 2010, 285(20), 15408-19). The ternary complex assay, surrogate of eIF2α phosphorylation, has been described elsewhere (see, for example, Chen, T. et al. Nature Chemical Biology 2011, 7(9), 610-6). Briefly, the pBISA vector, which contains seven copies of the tetracycline-regulated transactivator response element (TRE), is flanked on both sides by minimal human cytomegalovirus (CMV) minimal promoters allowing bi-directional transcription and two MCSs (multiple cloning sites). Firefly and renilla luciferases were subcloned into MCS-I and MCS-II, respectively. This plasmid, designated pBISA-DL, transcribes two mRNAs that contain the 90 nucleotide plasmid derived 5′UTR (same sequence in both mRNAs), and the ORF encoding either firefly or renilla luciferase followed by a polyadenylation sequence. This plasmid was further modified by inserting the 5′UTR of ATF-4 mRNA into MCS-I in front of the firefly luciferase mRNA. Transcription from this unit generates an mRNA that contains the firefly luciferase ORF preceded by a 5′UTR composed of 90 nucleotides derived from the plasmid and 267 nucleotides derived from the 5′UTR of ATF-4 mRNA. Transcription from the other unit generates an mRNA that contains the renilla luciferase ORF proceeded only by the 90-nucleotide plasmid-derived sequence in the 5′UTR (pBISA-DL (ATF-4)) (see, for example, Chen, T. et al. Nature Chemical Biology 2011, 7(9), 610-6).
Cells expressing firefly and renilla luciferases were assayed with a dual glow luciferase assay kit, per manufacturer's instruction (Promega Inc., Madison, Wis.). The data calculations were carried out as the ratio of firefly to renilla luciferase signal.
A library of 1900 urea compounds was screened in the surrogate dual luciferase eIF2α phosphorylation (ternary complex) assay. This library was originally assembled and screened for inhibition of sEH by Hammock's group at UC-Davis (see, for example, Chen, T. et al. Nature Chem Biol 2011, 7, 610-616; Ziegeler, G et al. J Biol Chem 2010, 285, 15408-15419). We developed this assay in order to identify compounds that activate HRI, taking advantage of the fact that activated HRI phosphorylates eIF2α thereby reducing the amount of the eIF2•GTP•Met-tRNAi ternary complex that results in inhibition of translation of many mRNAs but paradoxically increases translation of some mRNAs that contain multiple upstream ORF (uORF) in their 5′ untranslated regions (UTRs). In our assay, firefly (F) luciferase mRNA is fused to 5′UTR of activating transcription factor 4 (ATF-4) mRNA that has multiple uORFs while renilla (R) luciferase mRNA is fused to a 5′UTR lacking any uORFs. Compounds that reduce the amount of the ternary complex, such as those activating HRI, would increase F luciferase expression while decreasing the R luciferase expression, resulting in an increased F/R luciferase ratio. To calculate the activity scores, the F/R ratios for every compound-treated wells were normalized to vehicle-treated (DMSO) wells that was arbitrarily set at 1 (F/R=1).

[3] = cell proliferation assay (SRB, 5 days), cell line not named in Table 1, values equal CRL-2813 values of Tables 5/8
[4] = ternary complex assay, F/R normalized to vehicle (DMSO = 1)
[5] = Homo sapiens, CRL2813, 120 h, cell proliferation assay (SRB, 5 days), cell line not named in Table 1, values equal CRL-2813 values of Tables 5/8
[6] = Homo sapiens, CRL2813, cell proliferation assay, Table 3, cell line not named, values equal CRL-2813 values of Table 8
[7] = surrogate eIF2α phosphorylation assay, Table 3
[8] = cell proliferation assay, Table 2, cell line not named

Row | Compound | IC50 [1, 3] [µM] | Emax (F/R) [2, 4] [F/R] | other results
1 | O=C(Nc1cccc(C(F)(F)F)c1)NC1CCC(Oc2ccc(F)cc2)CC1 (centres unmarked) [Compound I-5m] | – | – | IC50 [1, 5]: 2.6 ± 0.3 µM; IC50 [1, 6]: 2.6 ± 0.6 µM; maximal fold induction [2, 4]: 11.8
2 | O=C(Nc1ccccc1C(F)(F)F)NC1CCC(Oc2ccc(F)cc2)CC1 (centres unmarked) [Compound I-5o] | > 20 | 1.56 | –
3 | O=C(Nc1ccc(C(F)(F)F)cc1)NC1CCC(Oc2ccc(F)cc2)CC1 (centres unmarked) [Compound I-5p] | 2.8 ± 0.1 | 13.99 | –
4 | O=C(Nc1ccccc1OC(F)(F)F)NC1CCC(Oc2ccc(F)cc2)CC1 (centres unmarked) [Compound I-6o] | > 20 | 1.41 | –
5 | COc1ccccc1NC(=O)NC1CCC(Oc2ccc(F)cc2)CC1 (centres unmarked) [Compound I-8o] | > 20 | 1.51 | –
6 | O=C(Nc1ccccc1[N+](=O)[O-])NC1CCC(Oc2ccc(F)cc2)CC1 (centres unmarked) [Compound I-9o] | 3.5 ± 0.3 | 2.23 | –
7 | O=C(Nc1ccc([N+](=O)[O-])cc1)NC1CCC(Oc2ccc(F)cc2)CC1 (centres unmarked) [Compound I-9p] | 2.3 ± 0.1 | 9.00 | –
8 | CSc1ccccc1NC(=O)NC1CCC(Oc2ccc(F)cc2)CC1 (centres unmarked) [Compound I-10o] | > 20 | 0.92 | –
9 | COC(=O)c1ccccc1NC(=O)NC1CCC(Oc2ccc(F)cc2)CC1 (centres unmarked) [Compound I-11o, methyl 2-(3-(4-(4-fluorophenoxy)cyclohexyl)ureido)benzoate] | – | – | IC50 [1, 5]: 14.5 ± 1.6 µM; maximal fold induction [2, 4]: 3.79
10 | COC(=O)c1ccc(NC(=O)NC2CCC(Oc3ccc(F)cc3)CC2)cc1 (centres unmarked) [Compound I-11p] | 11.6 | 3.97 | –
11 | O=C(Nc1ccccc1C(=O)O)NC1CCC(Oc2ccc(F)cc2)CC1 (centres unmarked) [Compound I-12o, 2-(3-(4-(4-fluorophenoxy)cyclohexyl)ureido)benzoic acid] | – | – | IC50 [1, 5]: > 20 µM; maximal fold induction [2, 4]: 1.2
12 | O=C(Nc1ccc(C(=O)O)cc1)NC1CCC(Oc2ccc(F)cc2)CC1 (centres unmarked) [Compound I-12p] | 11.6 ± 1.8 | 3.49 | –
13 | O=C(Nc1cccc(C(F)(F)F)c1)NC1CCC(Oc2ccc(Cl)cc2)CC1 (centres unmarked) [Compound I-16, 1-(4-(4-Chlorophenoxy)cyclohexyl)-3-(3-(trifluoromethyl)phenyl)urea] | – | – | IC50 [1, 6]: 2 ± 0.1 µM; maximal fold induction [2, 7]: 6.73
14 | O=C(Nc1cccc(C(F)(F)F)c1)NC1CCC(Oc2ccccc2C(F)(F)F)CC1 (centres unmarked) [Compound I-19, 1-(4-(2-(Trifluoromethyl)phenoxy)cyclohexyl)-3-(3-(trifluoromethyl)phenyl)urea] | – | – | IC50 [1, 6]: 1.4 ± 0.3 µM; maximal fold induction [2, 7]: 15.7
15 | O=C(Nc1cccc(F)c1)N[C@H]1CC[C@H](OCc2c(F)cccc2F)CC1 [II-1m] | – | – | IC50 [1, 8]: > 20 µM; Emax (F/R) ([2]; 7.5 μM compound): 0.72 F/R; Emax (F/R) ([2]; 15 μM compound): 0.77 F/R; Emax (F/R) ([2]; 30 μM compound): 0.67 F/R
16 | O=C(Nc1ccccc1F)N[C@H]1CC[C@H](OCc2c(F)cccc2F)CC1 [II-1o] | – | – | IC50 [1, 8]: > 20 µM; Emax (F/R) ([2]; 7.5 μM compound): 0.96 F/R; Emax (F/R) ([2]; 15 μM compound): 0.98 F/R; Emax (F/R) ([2]; 30 μM compound): 0.89 F/R
17 | O=C(Nc1cccc(Cl)c1)N[C@H]1CC[C@H](OCc2c(F)cccc2F)CC1 [II-2m] | – | – | IC50 [1, 8]: > 20 µM; Emax (F/R) ([2]; 7.5 μM compound): 0.79 F/R; Emax (F/R) ([2]; 15 μM compound): 0.78 F/R; Emax (F/R) ([2]; 30 μM compound): 0.75 F/R
18 | O=C(Nc1ccccc1Cl)N[C@H]1CC[C@H](OCc2c(F)cccc2F)CC1 [II-2o] | – | – | IC50 [1, 8]: > 20 µM; Emax (F/R) ([2]; 7.5 μM compound): 0.81 F/R; Emax (F/R) ([2]; 15 μM compound): 0.69 F/R; Emax (F/R) ([2]; 30 μM compound): 0.81 F/R
19 | O=C(Nc1ccc(Cl)cc1)N[C@H]1CC[C@H](OCc2c(F)cccc2F)CC1 [II-2p] | – | – | IC50 [1, 8]: > 20 µM; Emax (F/R) ([2]; 7.5 μM compound): 0.95 F/R; Emax (F/R) ([2]; 15 μM compound): 0.96 F/R; Emax (F/R) ([2]; 30 μM compound): 0.74 F/R

Second part, led by results:

Row | IC50 [1, 3] [µM] | Emax (F/R) [2, 4] [F/R] | Compound | other results
20 | 8.3 ± 0.9 | 6.54 | O=C(Nc1cccc(F)c1)NC1CCC(Oc2ccc(F)cc2)CC1 (centres unmarked) [Compound I-1m] | –
21 | 17.5 ± 1.1 | 2.10 | O=C(Nc1ccccc1F)NC1CCC(Oc2ccc(F)cc2)CC1 (centres unmarked) [Compound I-1o] | –
22 | 20 ± 2.1 | 0.98 | O=C(Nc1ccc(F)cc1)NC1CCC(Oc2ccc(F)cc2)CC1 (centres unmarked) [Compound I-1p] | –
23 | 5.9 ± 0.6 | 8.76 | O=C(Nc1cccc(Cl)c1)NC1CCC(Oc2ccc(F)cc2)CC1 (centres unmarked) [Compound I-2m] | –
24 | 9.1 ± 1 | 5.37 | O=C(Nc1ccccc1Cl)NC1CCC(Oc2ccc(F)cc2)CC1 (centres unmarked) [Compound I-2o] | –
25 | > 20 | 1.65 | O=C(Nc1ccc(Cl)cc1)NC1CCC(Oc2ccc(F)cc2)CC1 (centres unmarked) [Compound I-2p] | –
26 | 6.2 ± 0.3 | 9.52 | O=C(Nc1cccc(Br)c1)NC1CCC(Oc2ccc(F)cc2)CC1 (centres unmarked) [Compound I-3m] | –
27 | 7.7 ± 0.1 | 5.23 | O=C(Nc1ccccc1Br)NC1CCC(Oc2ccc(F)cc2)CC1 (centres unmarked) [Compound I-3o] | –
28 | > 20 | 1.29 | O=C(Nc1ccc(Br)cc1)NC1CCC(Oc2ccc(F)cc2)CC1 (centres unmarked) [Compound I-3p] | –
29 | 5.2 ± 0.2 | 10.32 | O=C(Nc1cccc(I)c1)NC1CCC(Oc2ccc(F)cc2)CC1 (centres unmarked) [Compound I-4m] | –
30 | > 20 | 3.25 | O=C(Nc1ccccc1I)NC1CCC(Oc2ccc(F)cc2)CC1 (centres unmarked) [Compound I-4o] | –
31 | 10.2 ± 1.5 | 3.77 | O=C(Nc1ccc(I)cc1)NC1CCC(Oc2ccc(F)cc2)CC1 (centres unmarked) [Compound I-4p] | –
32 | 14.4 ± 0.5 | 4.73 | Cc1cccc(NC(=O)NC2CCC(Oc3ccc(F)cc3)CC2)c1 (centres unmarked) [Compound I-7m] | –
33 | > 20 | 0.98 | Cc1ccccc1NC(=O)NC1CCC(Oc2ccc(F)cc2)CC1 (centres unmarked) [Compound I-7o] | –
34 | > 20 | 1.05 | Cc1ccc(NC(=O)NC2CCC(Oc3ccc(F)cc3)CC2)cc1 (centres unmarked) [Compound I-7p] | –
35 | 14 ± 1.3 | 3.81 | COc1cccc(NC(=O)NC2CCC(Oc3ccc(F)cc3)CC2)c1 (centres unmarked) [Compound I-8m] | –
36 | > 20 | 0.83 | COc1ccc(NC(=O)NC2CCC(Oc3ccc(F)cc3)CC2)cc1 (centres unmarked) [Compound I-8p] | –
37 | 6.7 ± 0.7 | 7.47 | O=C(Nc1cccc([N+](=O)[O-])c1)NC1CCC(Oc2ccc(F)cc2)CC1 (centres unmarked) [Compound I-9m] | –
38 | 11.1 ± 1.1 | 6.67 | CSc1cccc(NC(=O)NC2CCC(Oc3ccc(F)cc3)CC2)c1 (centres unmarked) [Compound I-10m] | –
39 | > 20 | 1.07 | CSc1ccc(NC(=O)NC2CCC(Oc3ccc(F)cc3)CC2)cc1 (centres unmarked) [Compound I-10p] | –
40 | 9.2 ± 0.8 | 6.83 | COC(=O)c1cccc(NC(=O)NC2CCC(Oc3ccc(F)cc3)CC2)c1 (centres unmarked) [Compound I-11m] | –
41 | > 20 | 0.88 | O=C(Nc1cccc(C(=O)O)c1)NC1CCC(Oc2ccc(F)cc2)CC1 (centres unmarked) [Compound I-12m] | –
42 | 20 ± 2 | 1.65 | O=C(Nc1ccccc1)NC1CCC(Oc2ccc(F)cc2)CC1 (centres unmarked) [Compound I-13] | –
